Experimental data reported in patent US8044057B2, “Methods for suppressing an immune response or treating a proliferative disorder” (The United States of America as represented by the …, priority 2003, dated 2011).

How the values were obtained:
[1] = tested on: primary mouse peritoneal macrophages; experiment: LPS-induced cytokine production in peritoneal macrophages; format: cell-based; conditions: LPS 1 μg/ml; 1~100 μM; 24 hours
Description: FIG. 7A-F are bar graphs showing that LY303511 inhibits lipopolysaccharide (LPS)—induced cytokine production or STAT1 activity in primary mouse peritoneal macrophages or A549 cells. Wild-type mice from Jackson (Jac) and Taconic (Tac) were used. Peritoneal macrophages were harvested three days after thioglycolate injection. Cells were incubated for three days in 2% FCS RPMI. The supernatant was collected after stimulation with LPS 1 μg/ml with or without LY 303511 (1˜100 μM) or DMSO for 24 hours. Cytokines (interleukin (IL)-12p70, tumor necrosis factor (TNF)-α, interferon (IFN)-γ, MCP-1, IL-10, IL-6) were measured in cell supematants. […] Thus, LY303511 clearly can reduce cytokine expression, and has an anti-inflammatory effect.
Peritoneal macrophages were harvested three days after thioglycolate injection. Cells were incubated for three days in 2% FCS RPM. The supernatant was collected after stimulation with LPS 1 μg/ml with or without LY 303511 (1˜100 μM) or DMSO for 24 hours. Cytokines (interleukin (IL)-12p70, tumor necrosis factor (TNF)-α, interferon (IFN)-γ, monocyte chemoattractant protein (MCP)-1, IL-10, IL-6) were measured in cell supernatants. […] Thus, LY303511 clearly can reduce cytokine expression, and has an anti-inflammatory effect.

A549 cells = experiment: A549 cell count after 24 hours with inhibitors; format: cell-based, human; conditions: 100 μM LY303511, rapamycin 200 ng/ml, 200 nM wortmannin, 100 μM LY294002
Description: FIG. 2A is a bar graph showing LY303511 blocks cell proliferation, DNA synthesis, and cell cycle progression in A549 cells. A. A549 cells (80,000 cells per 35-mm dish) were grown for 1 day in medium with FBS before the addition of 0.1% DMSO, 100 μM LY303511, rapamycin, 200 ng/ml, 200 nM wortmannin, or 100 μM LY294002 for 24 hours. Cells were then incubated with trypsin, collected, and counted. Data are the means of cells/well×10^−4 ±SEM from duplicate assays in three experiments. *p<0.05 by Student's t-test. FIG. 2B is a line graph from results obtained when A549 cells (4,000 per well) in 96-well plates were grown in medium with FBS for 24 h before the addition of […] plus 0-200 μM LY303511 without or with rapamycin, 200 ng/ml, or with rapamycin alone (0-200 ng/ml). BrDU incorporation (absorbance at 490/465) was measured by in situ ELISA as per the manufacturer's instructions (BrDU detection kit, Roche). For each experiment, BrDU in cells incubated with inhibitors was expressed as a percentage of that in cells treated with 0.2% DMSO control (% control). Mean absorbance measures for controls=100% in each experiment were 0.9±0.3, 0.8±0.3, and 0.8±0.3. […]
Additionally, A549 cells (80,000 cells per well), were grown for 24 hours before addition of inhibitors (FIG. 2A). After 24 hours, trypan blue-stained cells were counted using a hemocytometer. […]

For `O=c1cc(N2CCNCC2)oc2c(-c3ccccc3)cccc12` [LY303511, 2-(4-piperazinyl)-8-phenyl-4H-1-benzopyran-4-one], the “LPS-induced cytokines (IL-12p70, TNF-α, IFN-γ, MCP-1, IL-10, IL-6) in cell supernatants” value [1] was “dose-dependent reduction of all six cytokines” and the “cell proliferation (cell number)” value (A549 cells) was “significant inhibitory effect”.
